# Experimental data taken from publication PMC7828731, “Anti-Aging Potential of Extracts from Washingtonia filifera Seeds” (Plants, 2021).
# Target: T1, Collagenase from Clostridium histolyticum
# T1 construct: gene colG; commercial native collagenase (Sigma)
# Assay: absorbance at […] nm, FALGPA hydrolysis
# Type: biochemical, Hathewaya histolytica
# Conditions: FALGPA 0.8 mM; 0.05 M Tricine, pH 7.5, 0.4 M NaCl, 0.01 M CaCl2; 15 min preincubation
structure (smiles),measurement,value
O=C(O[C@@H]1Cc2c(O)cc(O)cc2O[C@@H]1c1cc(O)c(O)c(O)c1)c1cc(O)c(O)c(O)c1 [Epigallocatechin gallate],IC50 (μg/mL) / Collagenase *,120.8 ± 6.22 µg/mL
